Consider 39 compounds from PubChem BioAssay AID588398 (Broad Institute, 2011).

Inconclusive results are not listed. A value given as a limit tells only on which side of the number the result lay.

The nature of this test: TES1-eGFP NF-kB reporter inhibition versus Tet-On dsRED, dose response, selectivity assay for LMP1 NF-kB inhibitor project, imaging, HEK293T, dual-color eGFP/dsRED, cherry-picks (AID 588398). The following applies: 48 h, dsRED channel counter-screen. For orientation: A counterscreen serves to expose hits that act by an unwanted route or on another target.
Compound `CC1=C(C(=O)OCc2ccc3c(c2)OCO3)C(c2ccc(Cl)cc2)NC(=O)N1` (centres undefined) displayed an AC50 of 0.1 µM. `COC(=O)[C@@]1(Cc2ccccc2)[C@H]2C(=O)N(Cc3ccccc3)C(=O)[C@H]2[C@H]2CN=C(SCc3ccc(Cl)cc3)N21` returned an AC50 of 2.49 µM. In turn, `CCC(=O)NC(c1cc(Cl)c2cccnc2c1O)C1CC1` (centres undefined) returned an AC50 of 13 µM.

As to `COc1cccc(/C=N/Nc2nccnc2Cl)c1O`, the AC50 is 12.1 µM.

On to `Cc1ccc2[nH]c3c(c2c1)CCCC3NC(=O)CCl` (centres undefined), for which the AC50 was 3.25 µM.

Compound `CCC(C)Nc1nc(-c2ccccn2)nc2ccccc12` (centres undefined) yielded an AC50 of 8.45 µM. For `Oc1ccc(C=NNC(=S)Nc2ccccc2)nc1`, the half-maximal activity concentration (AC50) stood at 11.1 µM. In the case of `Cc1nnc(SCC(=O)N2CCC(c3noc4ccc(F)cc34)CC2)s1`, the AC50 was found to be 1.69 µM. Under `O=C(N/N=C/c1cc2c3c(c1O)CCCN3CCC2)c1ccccc1O` stands 8.25 µM; under `C[n+]1c2n(c3ccccc31)N=C(c1cc(C(C)(C)C)c(O)c(C(C)(C)C)c1)CS2`, 10.8 µM; under `CN1C(=O)N(C)c2ccc(C=O)c3cccc1c23`, 12.9 µM.

As for `CCOc1ccc(/C=C/[N+](=O)[O-])c2ccccc12`, the AC50 stood at 4.38 µM. Consider `COc1cccc(/C=N/Nc2nc3ccccc3[nH]2)c1O`, for which the AC50 amounted to 12 µM.

On to `N#Cc1ncc(N=Cc2ccc(N(CCCl)CCCl)cc2)s1`, for which the concentration at half-maximal activity (AC50) is 12.6 µM. The AC50 values of the last two compounds are within 1.5-fold of each other. In turn, `O=[N+]([O-])c1ccc2ncnc(N3CCN(Cc4ccc5c(c4)OCO5)CC3)c2c1` returned an AC50 of 2.87 µM. Then `CC(=C/c1ccccc1)/C=N/n1c(-c2ccncc2)n[nH]c1=S`, with 1.3 µM. `CCOC(=O)/C=C(\C)Sc1cc(=O)oc2ccccc12` came in with a half-maximal activity concentration (AC50) of 8.75 µM. As to `CS(=O)(=O)c1ccc(Sc2nc3ccccc3s2)c([N+](=O)[O-])c1`, the AC50 was found to be 3.22 µM. Under `CC1Cc2ccccc2N1c1ncnc(N)c1[N+](=O)[O-]` (centres undefined) stands 0.411 µM.

In the case of `C=CCn1c(C)c(C(C)=O)c(N2CCN(C(c3ccccc3)c3ccccc3)CC2)nc1=S`, the concentration at half-maximal activity (AC50) is over 19.5 µM.

For the compound `CCC(=O)NC(c1ccc(C)cc1)c1ccc2cccnc2c1O` (centres undefined), the AC50 turned out to be 3.61 µM. `C=C1C(=O)C2=CC1CCC(=O)C1(C)CCC(OC(C)=O)C(C)(C)C1CC2O` (centres undefined) yielded an AC50 of 2.73 µM. `O=C(c1ccccc1)C(CCC(CN1CCOCC1)C(=O)c1ccccc1)CN1CCOCC1` (centres undefined) gave an AC50 of 1.99 µM. Then `N#CC(C#N)c1ccnc2ccccc12`, with 6.14 µM. Under `CC(C)(O)C#Cc1ccc([C@@H]2C[C@H]3CN(c4ccccc4)C(=O)[C@]34CCCN24)s1` stands 14.9 µM; under `CCCC(=O)NC(c1ccc(C)cc1)c1ccc2cccnc2c1O` (centres undefined), 4.12 µM.

`O=C(N/N=C/c1sc2ccccc2c1O)c1cccc2ccccc12` had an AC50 of 4.27 µM. `CCN(CC)S(=O)(=O)c1ccc(N/N=C/c2ccc(O)cc2O)nc1` showed a half-maximal activity concentration (AC50) of 4.19 µM. `NC(=S)NN=Cc1nccc2c(C(F)(F)C(F)(F)C(F)(F)F)cccc12` gave an AC50 of 1.27 µM. This AC50 lies about 3.3-fold lower than the previous one.

In turn, `CN1CCN(/N=C/c2ccc(N(c3ccccc3)c3ccccc3)cc2)CC1` came in with an AC50 of 0.505 µM.

Compound `COc1cc(C=C2CCCC(=Cc3ccc(OCC4CO4)c(OC)c3)C2=O)ccc1OCC1CO1` (centres undefined) registered a half-maximal activity concentration (AC50) of 8.08 µM. The compound `O=C(NN=Cc1ccc(N(CCCl)CCCl)cc1Cl)c1cccnc1` showed an AC50 of 1.58 µM. Compared with the last compound, the AC50 is about 5.1-fold lower. The compound `COc1cc([C@@H]2c3cc4c(cc3[C@@H](O[C@@H]3O[C@@H]5CO[C@@H](C)O[C@H]5[C@H](O)[C@H]3O)[C@H]3COC(=O)[C@H]23)OCO4)cc(OC)c1O` gave an AC50 of 14.5 µM. The compound `c1nc(NCc2ccc3c(c2)OCO3)c2cc(-c3ccoc3)ccc2n1` yielded an AC50 of 1.56 µM. Under `CC(=O)NC(c1ccc(Cl)cc1)c1ccc2cccnc2c1O` (centres undefined) stands 4.14 µM; under `COc1cccc(/C=N/Nc2ncnc(Cl)c2N)c1O`, 3.08 µM; under `NC(=S)N/N=C/c1ncc(C(F)(F)F)cc1Cl`, 12.1 µM. Consider `O=C(N/N=C/c1ccc(O)cc1O)c1ccc(CN2C(=O)c3cccc4cccc2c34)cc1`, for which the AC50 came to 12.7 µM. On to `NC(=S)NN=Cc1nccc2c(C(F)(F)F)cccc12`, for which the AC50 was 4.06 µM.

The term AC50 denotes the midpoint of the concentration-response curve, whichever way the signal moves. A higher AC50 goes with activity only at high concentration.
